Source: publication PMC3169196 (Journal of medicinal chemistry, 2011)

Experiments:
MCF10A cells = experiment: MTT assay with immortalized normal breast cells MCF10A; format: cell-based, human; settings: for killing of normal MCF10A cells: compared with cancerous MCF-7 and MDA-MB-231 cells
[1] = tested on: eukaryotic elongation factor 1A1 (eEF1A1); settings: four rounds of biopanning, 12 phage clones per compound sequenced
MDA-MB-231 cells = experiment: MTT assay, antiproliferative activity in MDA-MB-231; format: cell-based, human; settings: for in vitro anticancer activity at single concentration: MDA-MB-231, 10μM of each analogue for three days
MCF-7 cells = experiment: MTT assay, antiproliferative activity in MCF-7; format: cell-based, human; settings: MCF-7, 10μM of each analogue for three days
eEF1A = format: binding, human; settings: biotinylated compound, MDA-MB-231 cell lysate, neutravidin beads, western blot
[2] = tested on: Akt (Ser473 and Thr308 phosphorylation); experiment: Western blot analysis of Akt phosphorylation in MDA-MB-231 cells; format: cell-based, human; settings: MDA-MB-231, 2μM for 6 hours and 12 hours
protein translation = experiment: 35S-Methionine labeled protein translation assay; format: cell-based; settings: 2, 4 and 8μM for 8 hours
eEF1A2 = target: T1, eEF1A2 (Homo sapiens, UniProt Q05639); format: binding; settings: biotinylated compounds on SA chip; apparent KDs unreliable
T1 sequence (Q05639 1-463): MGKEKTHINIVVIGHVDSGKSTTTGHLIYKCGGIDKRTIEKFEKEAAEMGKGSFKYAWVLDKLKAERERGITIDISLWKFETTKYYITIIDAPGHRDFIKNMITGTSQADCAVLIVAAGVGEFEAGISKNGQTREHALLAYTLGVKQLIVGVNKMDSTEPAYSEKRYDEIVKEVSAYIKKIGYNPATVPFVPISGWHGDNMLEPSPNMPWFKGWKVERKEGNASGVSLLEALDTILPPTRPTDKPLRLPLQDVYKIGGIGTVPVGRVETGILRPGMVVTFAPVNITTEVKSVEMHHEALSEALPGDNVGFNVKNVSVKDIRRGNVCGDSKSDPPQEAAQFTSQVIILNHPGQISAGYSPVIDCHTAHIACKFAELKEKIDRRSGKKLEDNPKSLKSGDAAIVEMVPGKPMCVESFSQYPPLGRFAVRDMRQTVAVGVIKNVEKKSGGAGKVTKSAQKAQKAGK

| decrease in IC50 compared to 10 (MDA-MB-231 cells; MDA-MB-231) | binding of eEF1A2 (SPR) (eEF1A2) | SMILES | killing of normal MCF10A cells (MCF10A cells) | binding protein recovered from phage clones [1] | in vitro anticancer activity at single concentration (MDA-MB-231 cells) | in vitro anticancer activity at single concentration (MCF-7 cells) | binding of eEF1A in pull down (eEF1A) | normal MCF10A cells killed (MCF10A cells; at 50μM) | phosphorylation of serine 473 and threonine 308 in Akt [2] | 35S-methionine incorporation into cellular proteins (protein translation) |
| --- | --- | --- | --- | --- | --- | --- | --- | --- | --- | --- |
| – | – | COc1ccc(Nc2nc3cc4c(=O)cc(-c5ccc(C(=O)N[C@@H](CC(C)C)C(N)=O)cc5)oc4cc3n2[C@H](C)C2CCCCC2)cc1 [Compound 10] | killed normal MCF10A cell in a similar manner as cancerous MCF-7 and MDA-MB-213 cells | two clones encoded eukaryotic elongation factor 1A1 (eEF1A1) | among the most active compounds | among the most active compounds | eEF1A did indeed bind | – | – | – |
| – | – | CC(C)CNc1nc2cc3c(=O)cc(-c4ccc(C(=O)N[C@@H](Cc5ccccc5)C(N)=O)cc4)oc3cc2n1Cc1ccccc1 [Compound 24] | killed normal MCF10A cell in a similar manner as cancerous MCF-7 and MDA-MB-213 cells | Eukaryotic elongation factor 1A 1 (eEF1A1) was also recovered | among the most active compounds | among the most active compounds | eEF1A did indeed bind | – | – | – |
| 5 fold | selectively bind to eEF1A2 | CC(C)C[C@H](NC(=O)c1ccc(-c2cc(=O)c3cc([N+](=O)[O-])c(N[C@H](C)C4CCCCC4)cc3o2)cc1)C(N)=O [Compound 39] | – | – | – | – | – | about 65% | able to suppress phosphorylation | decreased ^35S-methionine incorporation into cellular proteins in a dose-dependent manner |
